Measured values: PMC5491903, “The Selective Phosphoinoside-3-Kinase p110δ Inhibitor IPI-3063 Potently Suppresses B Cell Survival, Proliferation, and Differentiation” (Frontiers in Immunology, 2017)

Tests used:
Assay type in all cases: cell-based
[1] = system: phosphorylation of AKT at serine 473 in mouse primary B cells; test: p-AKT (S473) western blot in αIgM + IL-4 stimulated mouse B cells
Protocol: (§1) IPI-3063 is a p110δ selective compound with an IC50 = 0.1 nM in p110δ-specific cell-based assays and cellular IC50 values for the other class I PI3K isoforms are at least 1,000-fold higher (Table 2) ([11]). […] To test the effects of p110γ inhibition, we used AS-252424 compound with a biochemical IC50 = 30 nM for p110γ ([17]). We assessed the effects of both IPI-3063 and IPI-443 on PI3K activity in mouse primary B cells stimulated with αIgM + IL-4, by evaluating phosphorylation of AKT at the serine 473 residue (Figures 1A,C) as well as the phosphorylation of ERK1/2 on Thr202/Tyr204 residues (Figures 1B,C). Cells were treated with a pan-PI3K inhibitor GDC-0941 or with various concentrations of IPI-3063 or IPI-443, or DMSO (0.1%) as the diluent control. Separate cultures were treated with the p110γ inhibitor AS-252424 or its diluent control (0.1% EtOH). MK-2206, an AKT inhibitor, which also reduces AKT S473 phosphorylation, was also used as a control to show ERK1/2 phosphorylation is independent of AKT activity. […]
(§2) Analysis was performed on western blots using ImageJ to measure mean fluorescence intensities of each band. Phospho-AKT S473 and phospho-ERK1/2 signal was normalized with actin measurements and fold change was calculated using the stimulated/no drug control.

[2] = system: phosphorylation of ERK1/2 on Thr202/Tyr204 in mouse primary B cells; test: p-ERK1/2 western blot in αIgM + IL-4 stimulated mouse B cells
Protocol: as §1, §2

[3] = system: mouse B cells; test: mouse B cell survival (B220+7AAD- viability, 48 h)
Protocol: To assess survival, purified mouse B cells were incubated for 48 h in either B-cell activating factor (BAFF) or interleukin-4 (IL-4) with various concentrations of IPI-3063 and IPI-443. […] The selective PI3K inhibitor IPI-3063 was very potent, achieving a significant decrease in B cell survival when present at 10 nM.
Total splenocytes were pretreated with inhibitors as indicated, then cultured with 10 ng/mL IL-4 (A) or 60 ng/mL of BAFF (B) for 48 h. Concentrations used were 1 nM, 10 nM, 100 nM, 1 µM for IPI-443 and 1, 10, 30, 100 nM for IPI-3063. AS252424 concentrations were 100 nM, 300 nM, and 1 µM, and GDC-0941 was at 500 nM. % viability was calculated by measuring % of B220^+7AAD^− cells. Samples were collected by time. (*P < 0.05, **P < 0.001, ***P < 0.0001 one-way ANOVA with Newman–Keuls multiple comparison test).

## O=C1NC(=O)/C(=C/c2ccc(-c3ccc(F)cc3O)o2)S1 [AS-252424, reference compound]
[1]; αIgM + IL-4, 100 nM, 300 nM, 1 µM
  effect on p-AKT signaling: no significant effect
[2]; αIgM + IL-4
  effect on p-ERK1/2: no significant effect
[3]; BAFF or IL-4, 48 h
  effect on survival: no significant effect

## CC(C)n1c([C@H](C)Nc2ncnc(N)c2C#N)cc2cccc(-c3ccc(=O)n(C)c3)c2c1=O [IPI-3063]
[1]; αIgM + IL-4, 30 min pretreatment, 1 h stimulation
  concentration with significant reduction of p-AKT: 1 nM
[2]; αIgM + IL-4, 1 h stimulation
  concentration with significant reduction of p-ERK1/2: 10 nM
[3]; BAFF, 48 h
  concentration with significant decrease in B cell survival: 10 nM
